Laboratory results as given in ChEMBL document CHEMBL1201862, “PubChem BioAssay data set” (2004).
Activity calls are given as the source filed them.

Legend:
[1] = NIH3T3 cell viability loss – ATP luminescence, mouse fibroblasts, counter-screen, dose response (AID 2010); type: functional, cell-based;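 further: cells exposed to compound for about 90 hours before reading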
[2] = Trypanosoma cruzi growth suppression in host cells – NIH3T3 host cells, beta-gal luminescence, confirmation (AID 2044); type: functional, cell-based;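 further: intracellular parasites grown in NIH/3T3 mouse fibroblasts as host cells; luminescent beta-galactosidase reporter signal from transgenic T. cruzi replicating inside host cells; inhibitors lower the luminescence signal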
[3] = biological target: T1, Heat shock factor protein 1 (Mus musculus, UniProt P38532); test: enhancement of HSF1-driven luciferase signal – cell-based, NIH3T3, luminescence, dose retest, confirmation (AID 435004); type: functional;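 further: stress induced by proteasome inhibitor MG132 added 30 min after compound; luciferase reporter driven by HSF1 response element in NIH3T3 cells; actives raise luminescence as potentiators of the MG132 stress response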
T1 sequence (P38532 whole entry): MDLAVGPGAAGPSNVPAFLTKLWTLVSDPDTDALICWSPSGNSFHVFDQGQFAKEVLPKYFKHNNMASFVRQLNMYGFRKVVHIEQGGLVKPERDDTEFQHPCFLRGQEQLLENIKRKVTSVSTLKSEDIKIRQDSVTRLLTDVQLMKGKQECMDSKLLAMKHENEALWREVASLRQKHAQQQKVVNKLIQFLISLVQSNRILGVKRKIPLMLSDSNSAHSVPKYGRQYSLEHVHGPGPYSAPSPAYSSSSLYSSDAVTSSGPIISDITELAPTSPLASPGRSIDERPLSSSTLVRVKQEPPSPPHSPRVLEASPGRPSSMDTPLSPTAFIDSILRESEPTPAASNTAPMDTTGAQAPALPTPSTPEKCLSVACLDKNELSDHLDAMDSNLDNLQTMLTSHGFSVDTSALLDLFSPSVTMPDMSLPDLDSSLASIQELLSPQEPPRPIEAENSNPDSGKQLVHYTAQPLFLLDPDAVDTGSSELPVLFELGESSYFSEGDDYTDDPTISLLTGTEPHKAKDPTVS

Cytochrome P450 1A2 = biological target: T2, Cytochrome P450 1A2 (Homo sapiens, UniProt P05177);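 further: PubChem cytochrome P450 panel assay, CYP1A2 panel member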
T2 sequence (P05177 whole entry): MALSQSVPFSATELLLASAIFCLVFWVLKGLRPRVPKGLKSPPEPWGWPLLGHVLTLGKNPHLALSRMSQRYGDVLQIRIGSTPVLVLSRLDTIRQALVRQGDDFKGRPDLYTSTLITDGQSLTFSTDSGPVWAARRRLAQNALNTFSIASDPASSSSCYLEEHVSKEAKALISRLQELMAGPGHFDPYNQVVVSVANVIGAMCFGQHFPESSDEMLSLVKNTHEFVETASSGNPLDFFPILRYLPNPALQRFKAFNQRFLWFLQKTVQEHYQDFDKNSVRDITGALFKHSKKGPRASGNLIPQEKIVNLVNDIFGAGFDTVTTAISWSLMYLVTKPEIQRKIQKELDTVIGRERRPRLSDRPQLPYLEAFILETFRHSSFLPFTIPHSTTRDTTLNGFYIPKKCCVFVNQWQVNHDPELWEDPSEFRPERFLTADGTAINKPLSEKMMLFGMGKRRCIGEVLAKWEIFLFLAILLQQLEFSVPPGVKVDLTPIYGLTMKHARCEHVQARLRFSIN

Cytochrome P450 2C19 = Cytochrome P450 2C19 (Homo sapiens, UniProt P33261); test: Cytochrome panel assay with activity outcomes. Panel member name: p450-cyp2c19 Compounds with AC50 equal or less than 10 uM are considered active; type: functional
Streptococcus = test: GAS UMAA2166 growth inhibition – luminescence, BacTiterGlo, counter-screen for streptokinase expression inhibitor project, dose response (AID 1915); type: functional, organism-based;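 further: potency for reduction of bacterial viability or growth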
[4] = tested on: Streptococcus sp. 'group A'; test: Streptococcus pyogenes SK(-)GAS viability under kanamycin – luminescence, BacTiterGlo, confirmation, counter-screen for streptokinase expression inhibitor project, dose response (AID 1900); type: functional, organism-based
Streptokinase A = biological target: T3, Streptokinase A (Streptococcus pyogenes serotype M1, UniProt P10520); test: viability-normalized secreted streptokinase activity reduction – plasminogen activation absorbance, OD405, dose response (AID 1914); type: functional, Streptococcus pyogenes M1 GAS;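 further: secreted streptokinase activity via plasminogen activation per viability signal from cell pellet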
T3 sequence (P10520 whole entry): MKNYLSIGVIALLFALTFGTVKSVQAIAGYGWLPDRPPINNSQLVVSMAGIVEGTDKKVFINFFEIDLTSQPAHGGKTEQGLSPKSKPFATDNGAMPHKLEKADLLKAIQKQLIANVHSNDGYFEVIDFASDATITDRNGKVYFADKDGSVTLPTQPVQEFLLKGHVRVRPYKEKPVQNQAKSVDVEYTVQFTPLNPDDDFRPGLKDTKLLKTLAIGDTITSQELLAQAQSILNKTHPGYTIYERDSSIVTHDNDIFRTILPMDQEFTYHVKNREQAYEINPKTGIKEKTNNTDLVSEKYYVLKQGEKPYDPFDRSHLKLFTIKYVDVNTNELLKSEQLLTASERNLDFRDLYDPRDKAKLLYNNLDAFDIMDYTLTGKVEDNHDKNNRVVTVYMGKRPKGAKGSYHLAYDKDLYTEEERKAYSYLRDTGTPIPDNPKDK

Cytochrome P450 3A4 = Cytochrome P450 3A4 (Homo sapiens, UniProt P08684);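 further: CYP3A4 tested as one member of a cytochrome P450 panel screen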
Sequence of Cytochrome P450 3A4 (P08684 whole entry): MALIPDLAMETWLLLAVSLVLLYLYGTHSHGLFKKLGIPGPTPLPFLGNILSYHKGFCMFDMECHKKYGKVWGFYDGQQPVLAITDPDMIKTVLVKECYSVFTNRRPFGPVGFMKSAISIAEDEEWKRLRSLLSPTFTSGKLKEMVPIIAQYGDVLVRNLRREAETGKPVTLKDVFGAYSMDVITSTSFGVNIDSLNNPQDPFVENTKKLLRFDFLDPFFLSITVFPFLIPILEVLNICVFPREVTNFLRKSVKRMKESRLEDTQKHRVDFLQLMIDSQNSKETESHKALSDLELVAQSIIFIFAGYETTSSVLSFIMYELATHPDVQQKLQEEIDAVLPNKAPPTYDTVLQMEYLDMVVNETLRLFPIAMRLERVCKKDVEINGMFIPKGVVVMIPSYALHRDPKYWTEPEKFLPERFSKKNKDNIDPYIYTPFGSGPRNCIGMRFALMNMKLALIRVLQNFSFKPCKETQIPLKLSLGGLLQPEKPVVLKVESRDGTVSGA

Sequence of Cytochrome P450 2C19 (P33261 whole entry): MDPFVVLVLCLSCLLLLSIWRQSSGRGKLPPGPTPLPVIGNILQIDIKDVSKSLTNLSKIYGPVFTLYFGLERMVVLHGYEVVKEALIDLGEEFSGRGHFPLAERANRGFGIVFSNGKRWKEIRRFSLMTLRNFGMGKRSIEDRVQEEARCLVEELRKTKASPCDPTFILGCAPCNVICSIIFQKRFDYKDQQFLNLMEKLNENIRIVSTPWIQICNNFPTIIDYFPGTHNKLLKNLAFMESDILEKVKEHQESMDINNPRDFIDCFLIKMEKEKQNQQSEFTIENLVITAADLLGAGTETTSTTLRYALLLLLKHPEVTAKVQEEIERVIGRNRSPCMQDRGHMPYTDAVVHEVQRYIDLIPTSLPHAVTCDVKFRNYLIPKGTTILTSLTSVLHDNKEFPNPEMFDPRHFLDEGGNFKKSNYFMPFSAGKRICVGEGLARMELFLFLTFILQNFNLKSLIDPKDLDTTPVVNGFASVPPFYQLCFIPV

SMILES: Cc1nn2c(O)c3c(nc2c1-c1ccc(F)cc1)CCCC3
- EC50 [1]: 10.1 µM (active)
- EC50 [2]: 0.451 µM (active)

SMILES: CC1(C)Cc2c(C#N)c(N3CCCC3)nc(-c3ccco3)c2CO1
- EC50 [3]: > 260 µM (inactive)

SMILES: N[C@H](Cc1ccc(Cl)cc1)C(=O)O
- AC50 (Cytochrome P450 1A2): 2 µM (inconclusive)

SMILES: O=C1[C@H]2[C@@H](c3ccc(Cl)cc3)N3C(=O)N(c4cccc(Br)c4)C(=O)[C@@]3(Cc3ccc(Cl)cc3)[C@H]2C(=O)N1C1CCCCC1
- EC50 [1]: > 60 µM (not active)
- EC50 [2]: 1.24 µM (active)

SMILES: Cn1c(=O)c2nc(CCCCC(=O)O)[nH]c2n(C)c1=O
- AC50 (Cytochrome P450 1A2): 0.794 µM (inconclusive)
- AC50 (Cytochrome P450 2C19): inconclusive

SMILES: COC(=O)Cc1ccc(NC(=O)c2ccc(C)c(C)c2)cc1
- EC50 [3]: 69.4 µM (active)

SMILES: CC1=CC(=O)C2=C(C)C[C@@H](O)[C@@H]3[C@@H](OC(=O)[C@H]3C)[C@H]12
- AC50 (Cytochrome P450 1A2): 25.1 µM (inconclusive)

SMILES: Cc1cccc(C(=O)OC(C)CN2CCN(C)CC2)c1 (centres undefined)
- EC50 [1]: > 30 µM (not active)
- EC50 [2]: 0.994 µM (active)

SMILES: O=C(Nc1nnc(C2CC2)s1)c1cc(S(=O)(=O)N2CCN(c3ccccc3)CC2)ccc1Cl
- AC50 (Cytochrome P450 1A2): 11.2 µM (inconclusive)

SMILES: O=C(Nc1cc(S(=O)(=O)N2CCOCC2)ccc1-n1cncn1)c1ccc(Cl)cc1
- EC50 [1]: > 60 µM (not active)
- EC50 [2]: 2.54 µM (active)

SMILES: O=C(Nc1ccc2c(c1)C(=O)OC2)c1ccc(Cl)cc1
- EC50 [3]: > 260 µM (inactive)

SMILES: Cn1cc(CNC(=O)c2sc3cccc(Cl)c3c2Cl)cn1
- EC50 [3]: > 260 µM (inactive)

SMILES: COc1ccc(-n2nc([N+](=O)[O-])c(NCCc3ccc(Cl)cc3)[n+]2[O-])cc1
- EC50 [1]: > 60 µM (not active)
- EC50 [2]: 0.602 µM (active)

SMILES: COc1ccccc1CN1CCN(Cc2ccc(Cl)cc2)CC1
- EC50 [1]: > 60 µM (not active)
- EC50 [2]: 0.439 µM (active)

SMILES: CC1(C)CC(c2nc(-c3ccc(Cl)cc3)cs2)CCS1 (centres undefined)
- EC50 (Streptococcus): > 150 µM (not active)
- EC50 [4]: 9.13 µM (active)
- EC50 (Streptokinase A): 13.9 µM (active)

SMILES: CCCCOc1ccc(CSc2nc[nH]n2)cc1
- EC50 [3]: 106 µM (active)

SMILES: CCCCN(C(=O)/C=C/c1ccco1)c1c(N)n(CCC)c(=O)[nH]c1=O
- EC50 [3]: > 260 µM (inactive)

SMILES: CCOc1ccc2nc(N(CCN(CC)CC)C(=O)c3ccc([N+](=O)[O-])cc3)sc2c1
- EC50 [1]: > 60 µM (not active)
- EC50 [2]: 0.184 µM (active)

SMILES: O=C(c1cccc(F)c1)N1CCC2(CCCN(c3cccc(-c4ccccc4)c3)C2)CC1
- AC50 (Cytochrome P450 1A2): 15.8 µM (inconclusive)

SMILES: CCOC(=O)Cn1c(S(=O)(=O)Cc2ccc(F)cc2)nc(-c2ccccc2)c1-c1ccccc1
- EC50 [3]: > 260 µM (inactive)

SMILES: COc1ccccc1NC(=O)C1=C(C)Nc2nc(-c3ccc(N(C)C)cc3)nn2C1c1ccncc1 (centres undefined)
- AC50 (Cytochrome P450 1A2): 12.6 µM (inconclusive)

SMILES: Cc1cccc(C)c1N1CCN(S(=O)(=O)c2ccc(F)cc2)CC1
- EC50 [3]: > 260 µM (inactive)

SMILES: COC(=O)C1(O)CC(CC(C)C)=NN1C(=O)c1ccccc1 (centres undefined)
- EC50 [3]: > 260 µM (inactive)

SMILES: Cc1ccc(C(CC(=O)c2ccco2)SCCO)cc1 (centres undefined)
- AC50 (Cytochrome P450 1A2): 25.1 µM (inconclusive)

SMILES: CCOc1ccc(NC(=O)Cn2nnc(C(=O)NCc3ccco3)c2N)cc1
- EC50 [3]: > 260 µM (inactive)

SMILES: O=S(=O)(NCC(c1cccnc1)N1CCN(c2ccccc2)CC1)c1cc(F)ccc1F (centres undefined)
- EC50 [1]: > 60 µM (not active)
- EC50 [2]: 0.508 µM (active)

SMILES: CCn1c(C(=O)NCc2cccnc2)cc2sc(Cl)cc21
- EC50 [1]: > 60 µM (not active)
- EC50 [2]: 1.12 µM (active)

SMILES: CC(C)(C)c1cc2cccnc2n1Cc1cccc(F)c1
- AC50 (Cytochrome P450 3A4): 15.8 µM (inconclusive)
- AC50 (Cytochrome P450 1A2): 12.6 µM (inconclusive)
- AC50 (Cytochrome P450 2C19; read-out: AC50): 11.2 µM (inconclusive)

SMILES: CCOC(=O)C(CCOc1cccc(CC)c1)C(=O)OCC
- EC50 [3]: 59.6 µM (active)

SMILES: COc1cccc(Nc2c3c(nc4c(-c5ccccc5)c(C)nn24)CCC3)c1
- EC50 (Streptococcus): > 150 µM (not active)
- EC50 [4]: 15 µM (active)
- EC50 (Streptokinase A): 8.91 µM (active)

SMILES: COc1ccc(-c2c(C)nn3c(Cl)c(C)c(C)nc23)cc1
- EC50 [3]: 108 µM (active)

SMILES: CC1=C(C(=O)N2CCOCC2)C(c2c(C)cc(C)cc2C)NC(S)=N1 (centres undefined)
- EC50 [3]: > 260 µM (inactive)

SMILES: CCCSc1nc(C)cc(C)c1C(N)=O
- AC50 (Cytochrome P450 1A2): 28.2 µM (inconclusive)

SMILES: Cn1ccc(C(=O)N/N=C/c2ccncc2)n1
- EC50 [3]: > 260 µM (inactive)

SMILES: O=S(=O)(O)c1ccc(O)c2ncccc12
- AC50 (Cytochrome P450 1A2): 0.631 µM (inconclusive)

SMILES: CC1(C)Cc2c(C#N)c(N)n(-c3ccccc3)c(=S)c2CO1
- EC50 [3]: > 260 µM (inactive)

SMILES: COc1ccc2c(c1)N(C[C@@H](C)CN(C)C)c1ccccc1S2 [DEXTROMEPROMAZINE]
- AC50 (Cytochrome P450 3A4): 7.94 µM (inconclusive)
- AC50 (Cytochrome P450 1A2): 15.8 µM (inconclusive)
